Laboratory results taken from EP1790349A1.

Assays:
[1] = tested on: Rauscher MuLV; assay: Rauscher Murine Virus (Rauscher MuLV) system in vivo, splenomegaly; conditions: rivabirin control, dose not given; in comparison with infected animals that received no treatment
[2] = tested on: Shigella dysenteriae; assay type: cell-based; conditions: disc 6: NaCl 400 mg/mL (control)
[3] = tested on: Salmonella tifi; assay type: cell-based; conditions: disc 6: NaCl 400 mg/mL (control)
[4] = tested on: Brucella suis; assay type: cell-based; conditions: disc 6: NaCl 400 mg/mL (control)
[5] = tested on: Streptococcus pneumoniae; conditions: disc 6: NaCl 400 mg/mL (control)
[6] = tested on: Streptococcus pyogenes; conditions: disc 6: NaCl 400 mg/mL (control)
[7] = tested on: Streptococcus aureus; conditions: disc 6: NaCl 400 mg/mL (control)
[8] = tested on: Neisseria gonorrhoeae; conditions: disc 6: NaCl 400 mg/mL (control)
[9] = tested on: Neisseria meningitides; conditions: disc 6: NaCl 400 mg/mL (control)
[10] = tested on: Pseudomona aeruginosa; conditions: disc 6: NaCl 400 mg/mL (control)
[11] = tested on: Shigella flexneri; conditions: disc 6: NaCl 400 mg/mL (control)
[12] = tested on: Escherichia coli; conditions: disc 6: NaCl 400 mg/mL (control)
[13] = tested on: Proteus vulgaris; conditions: disc 6: NaCl 400 mg/mL (control)
[14] = tested on: Haemophilus influenzae; conditions: disc 6: NaCl 400 mg/mL (control)
[15] = tested on: Klebsiela; conditions: disc 6: NaCl 400 mg/mL (control)

| SMILES | reduction of the spleen size [1] | inhibitory halos [2] | inhibitory halos [3] | inhibitory halos [4] | inhibitory halos [5] | inhibitory halos [6] | inhibitory halos [7] | inhibitory halos [8] | inhibitory halos [9] | inhibitory halos [10] | inhibitory halos [11] | inhibitory halos [12] | inhibitory halos [13] | inhibitory halos [14] | inhibitory halos [15] |
| --- | --- | --- | --- | --- | --- | --- | --- | --- | --- | --- | --- | --- | --- | --- | --- |
| NC(=O)c1ncn([C@@H]2O[C@H](CO)[C@@H](O)[C@H]2O)n1 [rivabirin] | 74% | – | – | – | – | – | – | – | – | – | – | – | – | – | – |
| [Cl-].[Na+] [NaCl] | – | 6 mm | 6 mm | 6 mm | 6 mm | 6 mm | 6 mm | 14 mm | 6 mm | 6 mm | 6 mm | 6 mm | 6 mm | 6 mm | 6 mm |
